Results published in US6630583B1, “Antibiotics and methods of using the same” (priority 1998, dated 2003).

Key:
[1] = test system: parent strain R6; assay: Effect of vancomycin treatment on viability; format: cell-based, S. pneumoniae; details: R6, vancomycin 10×MIC (5 μg/ml), over 4 hours
Description: Bacterial viability was followed for six hours.
(§3) The effect of penicillin and vancomycin treatment on the viability was determined by exposing 10 ml cultures in the early exponential phase of growth (OD620nm=0.3, corresponding 5×10^7 cfu/ml) to ten times the MIC of benzylpenicillin or vancomycin, respectively. After various times of exposure, 100 μl portions were removed, serially diluted in C+Y and in the case of penicillin supplemented with 100 units of penicillinase (Sigma), and plated on tryptic-soy agar supplemented with 3% sheep blood (v/v).

[2] = test system: leucine deprived R6 cells; assay: Stringent response: lysis after leucine deprivation; format: cell-based, S. pneumoniae; details: 10×MIC of penicillin or vancomycin, 0.2 mM P27, or combination
Description: P27 and the stringent response mechanism: The stringent response is believed to prevent the death pathway. To clarify the relationship of the stringent response to P27 activity, protein synthesis of R6 was inhibited by leucine deprivation and the effect of P27 was monitored (FIG. 19). […] The minimum concentration of penicillin required to cause penicillin dependent autolysis was equal to its MIC ([…]).

[3] = test system: clinical isolate A144; assay: Cell viability (CFU/ml) one hour after addition; format: cell-based, pneumococcus; details: 10×MIC of penicillin, 1×MIC of vancomycin or 0.4 mM peptide
From the text: Tolerance to penicillin occurs in bacteria that fail to trigger autolysins in response to the drug. […] This is a mechanism of resistance to these drugs and is a serious emerging medical problem. […] However, one pneumococcal strain that fails to lyse and dies slowly in response to both penicillin and vancomycin is the clinical isolate A144. This combination of traits makes A144 recalcitrant to therapy. FIG. 8 compares the activity of penicillin, vancomycin, and the peptide having the amino acid sequence of SEQ ID NO:2 against a classical sensitive strain, R6, and the tolerant strain A144. […] In contrast, strain A144 loses only 0.5 logs of viability in the same time period for all three therapies. […] Thereafter the bacteria grew more slowly than untreated controls.

[4] = test system: clinical isolate F79; assay: Lysis of tolerant clinical isolate; format: cell-based, pneumococcus; details: 10×MIC of penicillin and/or 0.5 mM peptide
Description: FIGS. 11A-11B show the effects of 10×MIC of penicillin and/or 0.5 mM of the peptide having the amino acid sequence of SEQ ID NO:2 on the lysis of clinical isolate F79 cells (FIG. 11A) and HK mutant VanS cells (FIG. 11B).
F79 is a natural isolate of pneumococcus with mutations in the HK and the ABC transporter genes as determined by SSCP (see Example 11).

[5] = test system: loss of function mutants of the ABC transporter and RR/HK; assay: Tolerance of loss of function mutants; format: cell-based, S. pneumoniae; details: growth inhibitory concentrations
From the text: As described in Example 6, using insertion duplication mutagenesis, loss of function mutations were obtained in each of the 3 open reading frames of the ABC transporter and each of the two parts of the RR/HK. […] These parallel phenotypes further implicate these topographically close genes in a common pathway.
Vancomycin is the only antibiotic that maintains efficacy against many strains of highly antibiotic resistant bacteria, such as staphylococci, enterococci and pneumococci. Escape from antibiotic activity of vancomycin has been detected in rare staphylococci and enterococci but not in pneumococci as yet. […] Infect. Dis. J., 12:196-200 (1993); Marton et al., J. Infect. Dis., 163:542-8 (1991); and Bradley et al., Pediatr. Infect. Dis., 14:1037-1041 (1995)]. […] If they created a phenotype which was corrected by exogenous peptide, they may participate in the biological activity of the peptide. For instance, the ABC transporter may transport the peptide and the HK may serve as an extracellular receptor for the peptide which then changes the behavior of the bacteria (i.e., killing) via a RR signal.

[6] = test system: strain RNET01 (vncS over-expressed); assay: Effect of vancomycin treatment on viability; format: cell-based, S. pneumoniae; details: RNET01, vancomycin 10×MIC (5 μg/ml), over 4 hours
Description: as §3
To address the question if the kinase/phosphatase VncS was indeed directly linked to the major pneumococcal autolytic pathway, VncS was overexpressed from a plasmid in a vncS deficient knockout mutant. […] To establish a possible correlation between over-expression of the vncS gene and cell death RNET01 and R6 were exposed to vancomycin.

[7] = test system: HK mutant; assay: Phenotypes of the mutants: lysis by penicillin, vancomycin, DOC; format: cell-based, S. pneumoniae
Description: (§1) Construction of mutations: Insertion duplication mutagenesis was carried out using PCR to generate gene fragments for homologous recombination proximal to the amino terminus of OrfW1, HK or RR as follows:
(§2) Phenotypes of the mutants: The mutants were assessed for various physiological functions characteristic of pneumococci. This included lysis by penicillin, vancomycin, and the detergent deoxycholate (DOC). Other capabilities tested included ability to undergo natural DNA transformation (Transform) and expression of the LytA protein as assessed by Western blot.

[8] = test system: Orf W1 mutant; assay: as above; format: cell-based, S. pneumoniae
Description: as §1, §2

[9] = test system: RR mutant; assay: as above; format: cell-based, S. pneumoniae
Description: as §1, §2

[10] = test system: vexp3 mutant; assay: Effect of antibiotic treatment on viability; format: cell-based, S. pneumoniae; details: 10×MIC of vancomycin, in 4 hours
Description: Bacterial viability was followed for six hours. (Parent strain, R6 (□), vex3 mutant (◯), and vncS mutant (⋄)).
as §3

[11] = test system: mutant SPSJ01; assay: Screen of library of loss of function mutants for antibiotic tolerance; format: cell-based, pneumococcus
From the text: To detect genes that are part of the trigger pathway of the pneumococcal autolysin a library of loss of function mutants has been created, which was screened for antibiotic tolerance [Pearce et al., Mol. Microbiol., 9:1037-1050 (1993)]. […] It is reasonable to assume that this two component system represents the start of the pneumococcal autolytic trigger pathway, functioning as a relay station reacting to cell density signals or the binding of antibiotics to penicillin binding proteins. Similar to the enterococcal histidine kinase VanSB, the pneumococcal VncS works most likely as a kinase/phosphatase (see Example 1, above).

SMILES: CN[C@H](CC(C)C)C(=O)N[C@H]1C(=O)N[C@@H](CC(N)=O)C(=O)N[C@H]2C(=O)N[C@H]3C(=O)N[C@H](C(=O)N[C@H](C(=O)O)c4cc(O)cc(O)c4-c4cc3ccc4O)[C@H](O)c3ccc(c(Cl)c3)Oc3cc2cc(c3O[C@@H]2O[C@H](CO)[C@@H](O)[C@H](O)[C@H]2O[C@H]2C[C@](C)(N)[C@H](O)[C@H](C)O2)Oc2ccc(cc2Cl)[C@H]1O [vancomycin]
- loss in viability (kill) [1]: 4 log
- lysis of R6 under leucine deprivation [2]: neither the addition of 10×the MIC of penicillin or vancomycin nor the addition of 0.2 mM P27 resulted in lysis
- loss of viability [3]: 0.5 logs
- lysis of F79 [4]: tolerant
- tolerance (lysis and death) [5]: exhibited tolerance
- loss in viability [6]: 1 log
- Lysis by [7]: tolerant
- Lysis by [8]: tolerant
- Lysis by [9]: sensitive
- kill [10]: less than 2 log
- death in the presence of antibiotic [11]: failed to die
